Experimental data published in patent US20080096903A1, “SULFAMOYL-CONTAINING DERIVATIVES AND USES THEREOF” (Wyeth, priority 2006, published 2008).

What was measured:
HSP90alpha protein = HSP90alpha protein (Homo sapiens, UniProt P07900); test: Hsp90alpha and BODIPY-Geldanamycin Fluorescent Polarization Binding Assay; conditions: 5 nM BODIPY GA, 30 nM Hsp90alpha
Description: Hsp90alpha and BODIPY-Geldanamycin Fluorescent Polarization Binding Assay Materials • HSP90alpha protein (Stressgen SPP-776) and BODIPY Labeled Geldanamycin (GA) was added to assay buffer stock (stored at 4 C): 20 mM Hepes pH 7.3, 50 mM KCl, 20 mM NaMoO4, 0.01% NP40 • Working Assay buffer: assay buffer stock @RT with freshly added 2 mM DTT and 0.1 mg/ml • Bovine Gamma Globulin (Panvera P2045, 5 mg/ml) • Black 96well micro titer plates (Thermo #7205, vwr# 25227-304) Sample Set-up and Controls • Competitive Binding Samples: 5 nM GA and 30 nM Hsp90alpha and inhibitor • Control Samples: buffer only, BODIPY GA only, BODIPY GA plus Hsp90alpha, BODIPY GA plus • Hsp90alpha and unlabeled GA Protocol 1. Prepare working assay buffer with Hsp90alpha protein at a final concentration of 30 nM per well in 100 ul final volume. Add 85 ul of this solution per well to 96 well black micro titer plate. (for 20 ml assay buffer add 400 ul 1 M DTT stk and 400 ul 5 mg/ml BGG stk) (1 mg/ml Hsp90 stock=˜11 uM protein; want 0.03 uM final in 100 ul, so adjust to 0.035 uM in 85 ul which is 1:314 fold dilution into assay buffer=64 ul protein plus 20 ml buffer to dispense 85 ul/well). 2. Add 5 ul of inhibitors @ 20× final desired concentration. For 10 ug/ml start, the overall dilution from 1 mg/ml stocks is 1:100. […] Use Wallac Envision to read FP using protocol: JENs FP FITC Dual in room 4603. (parameters are: mirror module-FITC FP dual, excitation filter-FITC FP 480, emission filters-FITC FP P-pol 535 and FITC FP S-pol 535) Analysis of Results The Envision instrument automatically prepares a calculation based on the readings it obtains from the two measurements. […] By adjusting G to 0.96 or 0.97, the FP measurement calculation will result in a “0” reading for BODIPY GM without Hsp90. […] IC50s will be determined manually from percent polarization values plotted in Microsoft Excel. […]

Hsp90α Protein = Hsp90α Protein (Homo sapiens, UniProt P07900); test: Hsp90 CE Competitive Binding Assay (displacement of fluorescein-labelled geldanamycin)
Description: Hsp90 CE Competitive Binding Assay: […]
b) “Competitor”, fluorescein-labelled geldanamycin • The competitor was synthesized as described by Llauger-Bufi et al, Bioorg.
The electrophoresis running buffer (RB) is comprised of 200 mM CAPSO, pH 9.2 (pH-adjusted with Trizma base). The sample buffer (SB) is comprised of 10 mM Trizma base, pH 8.0 (pH-adjusted with glacial acetic acid), 5 mM MgCl2, 5 mM DTT, and BSA and Triton as noted.
Capillary electrophoresis was performed on Cetek Gemini Systems™ using laser-induced fluorescence detection. Fused-silica capillaries (50 μm I.D.×30 cm, approximately 10 cm length from end to detection window) were internally coated using Cetek's proprietary methods.
Each sample (i.e., fermentation extract, partially-purified fraction, or compound mixture, or pure compound) to be assayed is prediluted 1:20 or 1:40 in SB containing 0.02% Triton. 1 μl of each prediluted sample is then deposited into a 96-well microtiter plate and mixed with 8 μl of Target Cocktail. These samples can be stored at 4° C. until ready for assay.
When ready for analysis, the plates are transferred to the deck of a Gemini System. To each mixture of sample and target, 1 μl of Competitor Cocktail is added and mixed thoroughly. This reaction mixture is allowed to incubate for 8 minutes on the refrigerated deck of the Gemini System (temperature 8° C.). During incubation, the CE capillary is rinsed for 30 seconds with RB containing 2 mg/ml BSA, and then 60 seconds with RB. At the end of incubation, a small plug of the reaction mixture is then injected into the capillary at low pressure (0.5 psi) for 7 seconds. The loaded capillary is then dipped into reservoirs containing RB and the sample is electrophoresed at 10 kV for 6 minutes at a temperature of 8° C.
The electrophoretic separation produces a graphical profile known as an “electropherogram,” which contains a peak representing the intact complex between Hsp90 and competitor, and a smaller series (typically, a triplet) of peaks representing unbound competitor. […] Dose-response experiments, which evaluate the degree of competitor displacement as a function of sample concentration, are subsequently run in triplicate to validate hits and to quantitate their potencies, which are expressed as IC50 values.
Negative controls are comprised of 0.5% DMSO, and positive controls are comprised of 0.1 μg/ml 17-AAG.

protein synthesis = conditions: literature reports; cited from earlier work
mice = conditions: Takahashi and Bepu, J. Antibiotics 1982; cited from earlier work

Compound | IC50 (HSP90alpha protein) [nM] | HSP90 inhibition / binding (in words) (Hsp90α Protein) | IC50 (Hsp90α Protein; initial structure activity relationship table, read-out: HSP90 CE IC50) [nM] | inhibition of protein synthesis (protein synthesis) | toxicity to mice (mice)
Nc1nc(F)nc2c1nc(Cc1cc3c(cc1I)OCO3)n2Cc1cn(CCOS(N)(=O)=O)nn1 [Example 16A, Sulfamic Acid 2-(4-((6-amino-2-fluoro-8-((6-iodobenzo[d][1,3]dioxol-5-yl)methyl)-9H-purin-9-yl)methyl)-1H-1,2,3-triazol-1-yl)ethyl ester] | 180 |  |  |  | 
Nc1nc(F)nc2c1nc(Cc1cc3c(cc1I)OCO3)n2CC#CCN1CCC(OS(N)(=O)=O)C1 (stereo not shown) [Example 160] | 140 |  |  |  | 
Nc1nc(F)nc2c1nc(Cc1cc3c(cc1I)OCO3)n2Cc1cn(CCCOS(N)(=O)=O)nn1 [Example 16B, Sulfamic Acid 3-[4-({6-amino-2-fluoro-8-[(6-iodo-1,3-benzodioxol-5-yl)methyl]-9H-purin-9-yl}methyl)-1H-1,2,3-triazol-1-yl]propyl ester] | 390 |  |  |  | 
Nc1nc(Cl)nc2c1ncn2C1OC(COS(N)(=O)=O)C(O)C1O (stereo not shown) [CSA, 2-chloro-5′-sulfamoyladenosine, reference compound] |  | inhibits HSP90 | 1000 | inhibit protein synthesis | toxic to mice
